The record followed here is ChEMBL document CHEMBL3608278 (J Med Chem, 2015).

In assay [1] the target is T1, Potassium voltage-gated channel subfamily A member 3 (Homo sapiens, UniProt P22001). The assay is classed as cell-based, CHO-K1.
For assay [2], the target named is T1, Potassium voltage-gated channel subfamily A member 3. Briefly: cell-based. More on the design: species or system Blood.
Assay [3] has the same target. Also noted: species or system Blood.

Some results are limits rather than exact numbers.

T1 sequence (P22001 whole entry): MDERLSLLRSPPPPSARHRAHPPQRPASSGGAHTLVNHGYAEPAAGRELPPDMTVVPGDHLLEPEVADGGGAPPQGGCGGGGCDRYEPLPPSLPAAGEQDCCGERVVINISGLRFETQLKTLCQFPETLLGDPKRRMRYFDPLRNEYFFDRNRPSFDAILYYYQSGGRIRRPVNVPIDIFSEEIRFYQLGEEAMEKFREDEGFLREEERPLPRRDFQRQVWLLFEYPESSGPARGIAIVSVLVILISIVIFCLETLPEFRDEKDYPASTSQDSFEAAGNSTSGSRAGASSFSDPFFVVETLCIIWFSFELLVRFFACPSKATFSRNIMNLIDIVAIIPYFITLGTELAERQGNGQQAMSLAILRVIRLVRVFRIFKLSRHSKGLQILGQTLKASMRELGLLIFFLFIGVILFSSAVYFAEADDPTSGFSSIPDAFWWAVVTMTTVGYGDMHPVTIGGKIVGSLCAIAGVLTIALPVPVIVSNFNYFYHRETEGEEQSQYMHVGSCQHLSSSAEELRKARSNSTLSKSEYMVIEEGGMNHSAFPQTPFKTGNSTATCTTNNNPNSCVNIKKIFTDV

Consider `CC[C@H](C)[C@@H]1NC(=O)[C@@H](NC(=O)[C@H](CO)NC(=O)[C@@H](N)CCCNC(=N)N)CSSC[C@@H](C(=O)O)NC(=O)[C@H]([C@@H](C)O)NC(=O)CNC(=O)[C@@H]2CSSC[C@@H]3NC(=O)[C@H](CCC(N)=O)NC(=O)[C@H](Cc4ccccc4)NC(=O)[C@H](C)NC(=O)[C@H]([C@@H](C)O)NC(=O)[C@H](CSSC[C@H](NC(=O)[C@H](Cc4ccccc4)NC(=O)[C@H](CO)NC(=O)[C@H](CC(C)C)NC(=O)[C@H](CCCNC(=N)N)NC(=O)[C@H](Cc4ccc(O)cc4)NC(=O)[C@H](CCCCN)NC(=O)[C@H](CCSC)NC(=O)[C@H](CCC(=O)O)NC(=O)[C@H](Cc4cnc[nH]4)NC(=O)[C@H](CCCCN)NC3=O)C(=O)N[C@@H](CCCNC(=N)N)C(=O)N[C@@H](CCCCN)C(=O)N[C@@H]([C@@H](C)O)C(=O)N2)NC(=O)[C@H](CCCNC(=N)N)NC(=O)[C@H](CO)NC(=O)[C@H](CCCCN)NC(=O)[C@@H]2CCCN2C(=O)[C@H]([C@@H](C)CC)NC(=O)[C@H]([C@@H](C)O)NC(=O)[C@H](CC(=O)O)NC1=O`, for which the IC50 in assay [1] was above 3.33 nM; in assay [2], above 92 nM; in assay [3] it was above 92 nM.
`CC[C@H](C)[C@@H]1NC(=O)[C@@H](NC(=O)[C@H](CO)NC(=O)[C@@H](N)CCCNC(=N)N)CSSC[C@@H](C(=O)O)NC(=O)[C@H]([C@@H](C)O)NC(=O)CNC(=O)[C@@H]2CSSC[C@@H]3NC(=O)[C@H](CCC(N)=O)NC(=O)[C@H](Cc4ccccc4)NC(=O)[C@H](C)NC(=O)[C@H]([C@@H](C)O)NC(=O)[C@H](CSSC[C@H](NC(=O)[C@H](Cc4ccccc4)NC(=O)[C@H](CO)NC(=O)[C@H](CC(C)C)NC(=O)[C@H](CCCNC(=N)N)NC(=O)[C@H](Cc4ccc(O)cc4)NC(=O)[C@H](CCCCN)NC(=O)[C@H](CCC(=O)O)NC(=O)[C@H](CO)NC(=O)[C@H](Cc4cnc[nH]4)NC(=O)[C@H](CCCCN)NC3=O)C(=O)N[C@@H](CCCNC(=N)N)C(=O)N[C@@H](CCCCN)C(=O)N[C@@H]([C@@H](C)O)C(=O)N2)NC(=O)[C@H](CCCNC(=N)N)NC(=O)[C@H](CO)NC(=O)[C@H](CCCCN)NC(=O)[C@@H]2CCCN2C(=O)[C@H]([C@@H](C)CC)NC(=O)[C@H]([C@@H](C)O)NC(=O)[C@H](CC(=O)O)NC1=O`: the IC50 in assay [1] is above 3.33 nM; in assay [2] it was 18.5 nM; in assay [3] it was 28.1 nM.
For `CC[C@H](C)[C@@H]1NC(=O)[C@@H](NC(=O)[C@H](CO)NC(=O)[C@@H](N)CCCNC(=N)N)CSSC[C@@H](C(=O)O)NC(=O)[C@H]([C@@H](C)O)NC(=O)CNC(=O)[C@@H]2CSSC[C@@H]3NC(=O)[C@H](CCC(N)=O)NC(=O)[C@H](Cc4ccccc4)NC(=O)[C@H](C)NC(=O)[C@H]([C@@H](C)O)NC(=O)[C@H](CSSC[C@H](NC(=O)[C@H](Cc4ccccc4)NC(=O)[C@H](CO)NC(=O)[C@H](CC(C)C)NC(=O)[C@H](CCCNC(=N)N)NC(=O)[C@H](Cc4ccc(O)cc4)NC(=O)[C@H](CCC(=O)O)NC(=O)[C@H](CCSC)NC(=O)[C@H](CO)NC(=O)[C@H](Cc4cnc[nH]4)NC(=O)[C@H](CCCCN)NC3=O)C(=O)N[C@@H](CCCNC(=N)N)C(=O)N[C@@H](CCCCN)C(=O)N[C@@H]([C@@H](C)O)C(=O)N2)NC(=O)[C@H](CCCNC(=N)N)NC(=O)[C@H](CO)NC(=O)[C@H](CCCCN)NC(=O)[C@@H]2CCCN2C(=O)[C@H]([C@@H](C)CC)NC(=O)[C@H]([C@@H](C)O)NC(=O)[C@H](CC(=O)O)NC1=O`, in that order: above 3.33 nM, above 100 nM and above 100 nM.
In the same order, the values of `CC[C@H](C)[C@@H]1NC(=O)[C@@H](NC(=O)[C@H](CO)NC(=O)[C@@H](N)CCCNC(=N)N)CSSC[C@@H](C(=O)O)NC(=O)[C@H]([C@@H](C)O)NC(=O)CNC(=O)[C@@H]2CSSC[C@@H]3NC(=O)[C@H](CCC(N)=O)NC(=O)[C@H](Cc4ccccc4)NC(=O)[C@H](C)NC(=O)[C@H]([C@@H](C)O)NC(=O)[C@H](CSSC[C@H](NC(=O)[C@H](Cc4ccccc4)NC(=O)[C@H](CO)NC(=O)[C@H](CC(C)C)NC(=O)[C@H](CCCNC(=N)N)NC(=O)[C@H](CCC(=O)O)NC(=O)[C@H](CCCCN)NC(=O)[C@H](CCSC)NC(=O)[C@H](CO)NC(=O)[C@H](Cc4cnc[nH]4)NC(=O)[C@H](CCCCN)NC3=O)C(=O)N[C@@H](CCCNC(=N)N)C(=O)N[C@@H](CCCCN)C(=O)N[C@@H]([C@@H](C)O)C(=O)N2)NC(=O)[C@H](CCCNC(=N)N)NC(=O)[C@H](CO)NC(=O)[C@H](CCCCN)NC(=O)[C@@H]2CCCN2C(=O)[C@H]([C@@H](C)CC)NC(=O)[C@H]([C@@H](C)O)NC(=O)[C@H](CC(=O)O)NC1=O` are above 3.33 nM, above 100 nM and above 100 nM.
In the same order, the values of `CC[C@H](C)[C@@H]1NC(=O)[C@@H](NC(=O)[C@H](CO)NC(=O)[C@@H](N)CCCNC(=N)N)CSSC[C@@H](C(=O)O)NC(=O)[C@H]([C@@H](C)O)NC(=O)CNC(=O)[C@@H]2CSSC[C@@H]3NC(=O)[C@H](CCC(N)=O)NC(=O)[C@H](Cc4ccccc4)NC(=O)[C@H](C)NC(=O)[C@H]([C@@H](C)O)NC(=O)[C@H](CSSC[C@H](NC(=O)[C@H](Cc4ccccc4)NC(=O)[C@H](CO)NC(=O)[C@H](CCC(=O)O)NC(=O)[C@H](CCCNC(=N)N)NC(=O)[C@H](Cc4ccc(O)cc4)NC(=O)[C@H](CCCCN)NC(=O)[C@H](CCSC)NC(=O)[C@H](CO)NC(=O)[C@H](Cc4cnc[nH]4)NC(=O)[C@H](CCCCN)NC3=O)C(=O)N[C@@H](CCCNC(=N)N)C(=O)N[C@@H](CCCCN)C(=O)N[C@@H]([C@@H](C)O)C(=O)N2)NC(=O)[C@H](CCCNC(=N)N)NC(=O)[C@H](CO)NC(=O)[C@H](CCCCN)NC(=O)[C@@H]2CCCN2C(=O)[C@H]([C@@H](C)CC)NC(=O)[C@H]([C@@H](C)O)NC(=O)[C@H](CC(=O)O)NC1=O` are 0.245 nM, 0.494 nM and 0.678 nM.
Take `CC[C@H](C)[C@@H]1NC(=O)[C@@H](NC(=O)[C@H](CO)NC(=O)[C@@H](N)CCCNC(=N)N)CSSC[C@@H](C(=O)O)NC(=O)[C@H]([C@@H](C)O)NC(=O)CNC(=O)[C@@H]2CSSC[C@@H]3NC(=O)[C@H](CCC(N)=O)NC(=O)[C@H](Cc4ccccc4)NC(=O)[C@H](C)NC(=O)[C@H]([C@@H](C)O)NC(=O)[C@H](CSSC[C@H](NC(=O)[C@H](CCC(=O)O)NC(=O)[C@H](CO)NC(=O)[C@H](CC(C)C)NC(=O)[C@H](CCCNC(=N)N)NC(=O)[C@H](Cc4ccc(O)cc4)NC(=O)[C@H](CCCCN)NC(=O)[C@H](CCSC)NC(=O)[C@H](CO)NC(=O)[C@H](Cc4cnc[nH]4)NC(=O)[C@H](CCCCN)NC3=O)C(=O)N[C@@H](CCCNC(=N)N)C(=O)N[C@@H](CCCCN)C(=O)N[C@@H]([C@@H](C)O)C(=O)N2)NC(=O)[C@H](CCCNC(=N)N)NC(=O)[C@H](CO)NC(=O)[C@H](CCCCN)NC(=O)[C@@H]2CCCN2C(=O)[C@H]([C@@H](C)CC)NC(=O)[C@H]([C@@H](C)O)NC(=O)[C@H](CC(=O)O)NC1=O`: the IC50 in assay [1] is above 3.33 nM; in assay [2], 8.16 nM; in assay [3], 34 nM.
For `CC[C@H](C)[C@@H]1NC(=O)[C@@H](NC(=O)[C@H](CO)NC(=O)[C@@H](N)CCCNC(=N)N)CSSC[C@@H](C(=O)O)NC(=O)[C@H]([C@@H](C)O)NC(=O)CNC(=O)[C@@H]2CSSC[C@@H]3NC(=O)[C@H](CCC(N)=O)NC(=O)[C@H](Cc4ccccc4)NC(=O)[C@H](C)NC(=O)[C@H]([C@@H](C)O)NC(=O)[C@H](CSSC[C@H](NC(=O)[C@H](Cc4ccccc4)NC(=O)[C@H](CO)NC(=O)[C@H](CC(C)C)NC(=O)[C@H](CCCNC(=N)N)NC(=O)[C@H](Cc4ccc(O)cc4)NC(=O)[C@H](CCCCN)NC(=O)[C@H](CCSC)NC(=O)[C@H](CO)NC(=O)[C@H](Cc4cnc[nH]4)NC(=O)[C@H](CCCCN)NC3=O)C(=O)N[C@@H](CCCNC(=N)N)C(=O)N[C@@H](CCC(=O)O)C(=O)N[C@@H]([C@@H](C)O)C(=O)N2)NC(=O)[C@H](CCCNC(=N)N)NC(=O)[C@H](CO)NC(=O)[C@H](CCCCN)NC(=O)[C@@H]2CCCN2C(=O)[C@H]([C@@H](C)CC)NC(=O)[C@H]([C@@H](C)O)NC(=O)[C@H](CC(=O)O)NC1=O`, in that order: 0.278 nM, 0.02 nM and 0.043 nM.
With `CC[C@H](C)[C@@H]1NC(=O)[C@@H](NC(=O)[C@H](CO)NC(=O)[C@@H](N)CCCNC(=N)N)CSSC[C@@H](C(=O)O)NC(=O)[C@H]([C@@H](C)O)NC(=O)CNC(=O)[C@@H]2CSSC[C@@H]3NC(=O)[C@H](CCC(N)=O)NC(=O)[C@H](Cc4ccccc4)NC(=O)[C@H](C)NC(=O)[C@H]([C@@H](C)O)NC(=O)[C@H](CSSC[C@H](NC(=O)[C@H](Cc4ccccc4)NC(=O)[C@H](CO)NC(=O)[C@H](CC(C)C)NC(=O)[C@H](CCCNC(=N)N)NC(=O)[C@H](Cc4ccc(O)cc4)NC(=O)[C@H](CCCCN)NC(=O)[C@H](CCSC)NC(=O)[C@H](CO)NC(=O)[C@H](Cc4cnc[nH]4)NC(=O)[C@H](CCC(=O)O)NC3=O)C(=O)N[C@@H](CCCNC(=N)N)C(=O)N[C@@H](CCCCN)C(=O)N[C@@H]([C@@H](C)O)C(=O)N2)NC(=O)[C@H](CCCNC(=N)N)NC(=O)[C@H](CO)NC(=O)[C@H](CCCCN)NC(=O)[C@@H]2CCCN2C(=O)[C@H]([C@@H](C)CC)NC(=O)[C@H]([C@@H](C)O)NC(=O)[C@H](CC(=O)O)NC1=O`, the values for the IC50 in assay [1], in assay [2] and in assay [3] were 0.12 nM, 0.047 nM and 0.083 nM, respectively.
